Data published in US20120122860A1, “SOLID FORMS OF SULFONAMIDES AND AMINO ACIDS” (Plexxikon, Inc., priority 2009, published 2012).

How the values were obtained:
B-Raf = B-Raf (Homo sapiens, UniProt P15056); test: Kinase activity assay, B-Raf; format: biochemical; conditions: read-out: activity toward kinase B-Raf, IC50
B-Raf V600E = B-Raf V600E (Homo sapiens, UniProt P15056, V600E); test: Kinase activity assay, B-Raf V600E; format: biochemical; conditions: read-out: activity toward kinase B-Raf V600E, IC50
Src = Src (Homo sapiens, UniProt P12931); test: Kinase activity assay, Src
TEC = target: T1, TEC (Homo sapiens, UniProt P42680); test: Kinase activity assay, TEC
T1 sequence (P42680 1-631): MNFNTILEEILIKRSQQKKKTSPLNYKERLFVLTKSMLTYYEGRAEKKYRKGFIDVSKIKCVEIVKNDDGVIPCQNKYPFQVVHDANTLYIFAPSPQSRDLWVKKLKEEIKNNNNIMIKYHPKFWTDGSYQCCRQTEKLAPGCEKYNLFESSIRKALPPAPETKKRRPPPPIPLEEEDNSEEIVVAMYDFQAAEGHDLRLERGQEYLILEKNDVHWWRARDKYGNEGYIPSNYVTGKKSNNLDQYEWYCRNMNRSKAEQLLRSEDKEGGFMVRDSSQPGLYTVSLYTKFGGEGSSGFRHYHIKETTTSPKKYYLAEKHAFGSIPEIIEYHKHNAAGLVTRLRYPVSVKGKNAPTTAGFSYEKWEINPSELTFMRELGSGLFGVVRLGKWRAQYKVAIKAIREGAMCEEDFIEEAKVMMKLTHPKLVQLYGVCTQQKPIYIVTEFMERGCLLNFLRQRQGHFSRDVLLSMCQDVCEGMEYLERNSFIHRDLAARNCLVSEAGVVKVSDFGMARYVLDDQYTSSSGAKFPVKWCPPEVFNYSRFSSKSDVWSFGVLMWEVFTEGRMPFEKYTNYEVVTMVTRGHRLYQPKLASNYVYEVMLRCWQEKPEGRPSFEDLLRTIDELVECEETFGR

C-Raf = C-Raf (Homo sapiens, UniProt P04049); test: Kinase activity assay, C-Raf
PI3Kα = PI3Kα (Homo sapiens, UniProt P42336); test: Kinase activity assay, PI3Kα
Btk = Btk (Homo sapiens, UniProt Q06187); test: Kinase activity assay, Btk
Kdr = Kdr (Homo sapiens, UniProt P35968); test: Kinase activity assay, Kdr
Kit = Kit (Homo sapiens, UniProt P10721); test: Kinase activity assay, Kit
MAP4K4 = MAP4K4 (Homo sapiens, UniProt O95819); test: Kinase activity assay, MAP4K4
Fms = Fms (Homo sapiens, UniProt P07333); test: Kinase activity assay, Fms
A-Raf = target: T2, A-Raf (Homo sapiens, UniProt P10398); test: Kinase activity assay, A-Raf
T2 sequence (P10398 1-606): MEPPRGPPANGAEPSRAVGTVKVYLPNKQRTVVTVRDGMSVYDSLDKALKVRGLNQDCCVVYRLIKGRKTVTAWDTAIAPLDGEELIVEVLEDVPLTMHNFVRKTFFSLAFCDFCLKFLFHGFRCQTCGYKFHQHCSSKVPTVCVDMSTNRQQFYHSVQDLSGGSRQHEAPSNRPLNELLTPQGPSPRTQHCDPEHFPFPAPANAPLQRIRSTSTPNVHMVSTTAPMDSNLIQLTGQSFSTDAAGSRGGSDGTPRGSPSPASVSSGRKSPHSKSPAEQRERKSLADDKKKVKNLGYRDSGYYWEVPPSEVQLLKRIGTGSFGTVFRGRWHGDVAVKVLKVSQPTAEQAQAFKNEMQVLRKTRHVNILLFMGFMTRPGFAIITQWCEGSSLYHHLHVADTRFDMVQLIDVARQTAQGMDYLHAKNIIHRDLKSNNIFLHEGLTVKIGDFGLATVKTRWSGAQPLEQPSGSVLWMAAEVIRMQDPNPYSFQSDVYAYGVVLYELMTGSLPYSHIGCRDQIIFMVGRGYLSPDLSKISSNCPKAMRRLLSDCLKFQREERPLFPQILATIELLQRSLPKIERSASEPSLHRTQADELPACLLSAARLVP

Src, sequence (P12931 whole entry): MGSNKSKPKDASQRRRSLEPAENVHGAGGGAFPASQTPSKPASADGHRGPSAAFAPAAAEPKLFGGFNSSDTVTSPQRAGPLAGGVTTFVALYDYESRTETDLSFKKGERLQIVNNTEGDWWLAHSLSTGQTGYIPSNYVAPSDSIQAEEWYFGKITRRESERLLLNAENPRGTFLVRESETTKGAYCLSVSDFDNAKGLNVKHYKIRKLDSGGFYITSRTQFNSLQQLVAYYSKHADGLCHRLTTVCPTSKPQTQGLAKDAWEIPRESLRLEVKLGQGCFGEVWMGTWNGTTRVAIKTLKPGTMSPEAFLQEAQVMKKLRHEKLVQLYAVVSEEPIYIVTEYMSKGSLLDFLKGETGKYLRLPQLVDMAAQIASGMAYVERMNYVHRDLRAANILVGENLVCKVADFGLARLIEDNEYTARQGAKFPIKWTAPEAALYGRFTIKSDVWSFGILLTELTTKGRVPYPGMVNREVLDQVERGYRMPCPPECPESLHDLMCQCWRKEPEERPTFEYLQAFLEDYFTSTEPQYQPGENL
Kit, sequence (P10721 26-976): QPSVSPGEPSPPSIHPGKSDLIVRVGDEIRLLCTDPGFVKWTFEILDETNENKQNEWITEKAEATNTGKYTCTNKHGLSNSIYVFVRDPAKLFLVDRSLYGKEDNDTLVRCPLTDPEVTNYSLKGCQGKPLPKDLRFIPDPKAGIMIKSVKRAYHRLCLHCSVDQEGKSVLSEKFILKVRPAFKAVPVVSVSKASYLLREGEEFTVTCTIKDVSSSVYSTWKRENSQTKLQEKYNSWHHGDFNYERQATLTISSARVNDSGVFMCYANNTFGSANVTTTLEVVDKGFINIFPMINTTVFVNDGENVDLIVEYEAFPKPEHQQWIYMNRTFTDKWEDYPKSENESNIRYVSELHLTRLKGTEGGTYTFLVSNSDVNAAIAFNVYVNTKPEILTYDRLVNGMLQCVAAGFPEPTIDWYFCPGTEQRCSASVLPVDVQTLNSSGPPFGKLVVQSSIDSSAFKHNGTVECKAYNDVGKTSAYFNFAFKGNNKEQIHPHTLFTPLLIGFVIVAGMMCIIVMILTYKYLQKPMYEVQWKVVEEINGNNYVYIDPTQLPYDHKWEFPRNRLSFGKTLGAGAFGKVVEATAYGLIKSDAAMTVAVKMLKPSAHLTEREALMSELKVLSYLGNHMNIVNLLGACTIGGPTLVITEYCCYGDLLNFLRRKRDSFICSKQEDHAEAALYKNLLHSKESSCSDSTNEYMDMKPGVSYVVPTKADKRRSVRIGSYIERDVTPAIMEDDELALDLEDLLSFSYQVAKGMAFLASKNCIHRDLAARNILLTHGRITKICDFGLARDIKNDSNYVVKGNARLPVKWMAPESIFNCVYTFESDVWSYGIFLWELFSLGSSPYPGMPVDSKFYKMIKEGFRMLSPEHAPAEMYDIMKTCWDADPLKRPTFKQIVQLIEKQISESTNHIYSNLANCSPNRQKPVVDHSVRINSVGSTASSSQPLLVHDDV
B-Raf, sequence (P15056 whole entry): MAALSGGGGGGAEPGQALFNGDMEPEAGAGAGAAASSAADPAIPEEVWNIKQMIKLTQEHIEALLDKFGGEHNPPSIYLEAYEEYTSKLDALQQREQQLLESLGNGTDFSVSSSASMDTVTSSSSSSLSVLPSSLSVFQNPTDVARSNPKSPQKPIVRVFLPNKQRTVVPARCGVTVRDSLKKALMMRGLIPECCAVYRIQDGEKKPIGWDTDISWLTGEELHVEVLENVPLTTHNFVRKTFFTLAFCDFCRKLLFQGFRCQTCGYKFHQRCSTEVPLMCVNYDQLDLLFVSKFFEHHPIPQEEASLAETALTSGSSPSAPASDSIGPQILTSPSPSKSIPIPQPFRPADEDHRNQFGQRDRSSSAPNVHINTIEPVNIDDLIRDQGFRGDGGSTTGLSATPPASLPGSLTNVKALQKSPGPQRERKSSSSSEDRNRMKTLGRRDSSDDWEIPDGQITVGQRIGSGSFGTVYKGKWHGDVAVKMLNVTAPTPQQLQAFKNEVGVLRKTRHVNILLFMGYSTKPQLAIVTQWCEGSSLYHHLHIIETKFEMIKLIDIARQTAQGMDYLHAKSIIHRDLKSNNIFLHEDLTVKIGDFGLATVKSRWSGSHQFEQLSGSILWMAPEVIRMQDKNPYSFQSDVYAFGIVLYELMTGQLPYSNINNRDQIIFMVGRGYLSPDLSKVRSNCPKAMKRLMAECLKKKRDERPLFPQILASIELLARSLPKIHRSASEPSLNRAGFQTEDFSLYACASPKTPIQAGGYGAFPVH
PI3Kα, sequence (P42336 whole entry): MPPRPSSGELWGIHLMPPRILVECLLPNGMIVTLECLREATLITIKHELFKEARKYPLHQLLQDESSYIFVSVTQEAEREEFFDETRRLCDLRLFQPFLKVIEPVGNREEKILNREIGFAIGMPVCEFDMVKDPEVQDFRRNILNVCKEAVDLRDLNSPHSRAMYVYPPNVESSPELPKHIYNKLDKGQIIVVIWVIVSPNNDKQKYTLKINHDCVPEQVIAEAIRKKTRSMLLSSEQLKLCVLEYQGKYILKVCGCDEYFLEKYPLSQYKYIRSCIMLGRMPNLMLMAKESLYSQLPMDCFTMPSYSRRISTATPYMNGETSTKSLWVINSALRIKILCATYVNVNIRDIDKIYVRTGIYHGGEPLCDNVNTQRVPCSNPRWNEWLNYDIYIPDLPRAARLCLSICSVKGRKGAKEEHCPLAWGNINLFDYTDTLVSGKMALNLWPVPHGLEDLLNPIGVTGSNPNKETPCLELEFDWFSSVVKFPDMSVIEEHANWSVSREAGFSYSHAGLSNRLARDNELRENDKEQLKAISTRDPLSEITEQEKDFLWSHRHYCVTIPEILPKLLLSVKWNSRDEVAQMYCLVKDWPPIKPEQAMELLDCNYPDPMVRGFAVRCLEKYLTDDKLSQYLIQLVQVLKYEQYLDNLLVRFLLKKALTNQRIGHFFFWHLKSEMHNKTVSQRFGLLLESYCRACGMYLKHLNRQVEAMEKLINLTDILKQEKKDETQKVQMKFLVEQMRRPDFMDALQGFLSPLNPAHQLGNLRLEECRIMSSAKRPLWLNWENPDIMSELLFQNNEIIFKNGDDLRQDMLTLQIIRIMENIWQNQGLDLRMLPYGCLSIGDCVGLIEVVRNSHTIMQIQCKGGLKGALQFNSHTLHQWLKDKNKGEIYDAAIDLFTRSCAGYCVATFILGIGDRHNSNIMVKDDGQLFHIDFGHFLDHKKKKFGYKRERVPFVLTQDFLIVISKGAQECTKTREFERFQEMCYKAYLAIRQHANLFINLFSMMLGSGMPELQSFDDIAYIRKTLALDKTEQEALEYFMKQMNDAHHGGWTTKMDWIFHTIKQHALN
PI3Kα, sequence (P27986 whole entry partner): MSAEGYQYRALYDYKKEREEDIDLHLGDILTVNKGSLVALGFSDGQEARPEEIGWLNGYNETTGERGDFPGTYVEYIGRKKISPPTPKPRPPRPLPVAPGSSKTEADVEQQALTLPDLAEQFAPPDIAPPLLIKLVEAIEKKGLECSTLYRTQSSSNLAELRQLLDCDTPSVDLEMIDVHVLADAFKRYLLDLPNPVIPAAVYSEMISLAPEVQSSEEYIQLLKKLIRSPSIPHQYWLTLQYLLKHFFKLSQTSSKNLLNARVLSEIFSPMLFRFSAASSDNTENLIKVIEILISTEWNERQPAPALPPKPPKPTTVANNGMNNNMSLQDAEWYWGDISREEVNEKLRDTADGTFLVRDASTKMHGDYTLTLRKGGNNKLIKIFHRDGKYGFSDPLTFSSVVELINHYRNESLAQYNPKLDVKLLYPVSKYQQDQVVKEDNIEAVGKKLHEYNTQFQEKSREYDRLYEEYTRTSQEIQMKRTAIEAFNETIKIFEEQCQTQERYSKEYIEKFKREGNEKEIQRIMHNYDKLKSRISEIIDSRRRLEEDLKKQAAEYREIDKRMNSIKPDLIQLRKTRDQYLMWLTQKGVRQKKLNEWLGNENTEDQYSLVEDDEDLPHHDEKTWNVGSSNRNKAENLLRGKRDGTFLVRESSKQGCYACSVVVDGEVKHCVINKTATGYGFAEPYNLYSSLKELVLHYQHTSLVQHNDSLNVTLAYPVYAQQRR
Btk, sequence (Q06187 whole entry): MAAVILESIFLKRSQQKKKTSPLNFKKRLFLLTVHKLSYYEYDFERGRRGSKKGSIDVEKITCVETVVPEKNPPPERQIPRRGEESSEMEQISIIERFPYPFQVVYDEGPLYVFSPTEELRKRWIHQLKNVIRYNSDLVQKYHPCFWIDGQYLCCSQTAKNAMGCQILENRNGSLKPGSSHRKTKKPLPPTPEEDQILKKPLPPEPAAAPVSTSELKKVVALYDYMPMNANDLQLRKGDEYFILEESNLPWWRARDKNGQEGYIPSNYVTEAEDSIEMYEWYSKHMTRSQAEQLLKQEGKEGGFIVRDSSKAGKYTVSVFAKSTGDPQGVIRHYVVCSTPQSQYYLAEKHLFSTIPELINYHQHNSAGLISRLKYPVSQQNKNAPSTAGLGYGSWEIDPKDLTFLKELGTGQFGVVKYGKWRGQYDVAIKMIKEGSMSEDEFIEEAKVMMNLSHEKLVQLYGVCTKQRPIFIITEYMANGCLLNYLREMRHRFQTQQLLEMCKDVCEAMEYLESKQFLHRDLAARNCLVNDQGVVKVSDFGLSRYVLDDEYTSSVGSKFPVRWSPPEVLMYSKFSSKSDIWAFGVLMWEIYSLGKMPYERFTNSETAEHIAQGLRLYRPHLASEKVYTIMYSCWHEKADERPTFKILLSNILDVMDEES
B-Raf V600E, sequence (P15056 whole entry V600E): as the sequence (P15056 whole entry) above, with V600E counted along it

| IC50 (B-Raf) | IC50 (B-Raf V600E) | IC50 (Src) | IC50 (TEC) | IC50 (C-Raf) | IC50 (PI3Kα) | IC50 (Btk) | IC50 (Kdr) | IC50 (Kit) | IC50 (MAP4K4) | IC50 (Fms) | IC50 (A-Raf) | SMILES |
| --- | --- | --- | --- | --- | --- | --- | --- | --- | --- | --- | --- | --- |
| ≤ 10 µM | ≤ 10 µM | ≤ 10 µM | ≤ 10 µM | ≤ 10 µM | ≤ 10 µM |  |  |  |  |  |  | COc1ncc(-c2cnc3[nH]cc(C(=O)c4c(F)ccc(NS(=O)(=O)c5ccc(F)cc5)c4F)c3c2)cn1 [P-2040, N-{2,4-Difluoro-3-[5-(2-methoxy-pyrimidin-5-yl)-1H-pyrrolo[2,3-b]pyridine-3-carbonyl]-phenyl}-4-fluoro-benzenesulfonamide] |
| ≤ 10 µM | ≤ 10 µM | ≤ 10 µM | ≤ 10 µM | ≤ 10 µM | ≤ 10 µM | ≤ 10 µM |  |  |  |  |  | COc1ncc(-c2cnc3[nH]cc(C(=O)c4c(F)ccc(NS(=O)(=O)c5cccc(F)c5)c4F)c3c2)cn1 [P-2045, N-{2,4-Difluoro-3-[5-(2-methoxy-pyrimidin-5-yl)-1H-pyrrolo[2,3-b]pyridine-3-carbonyl]-phenyl}-3-fluoro-benzenesulfonamide] |
| ≤ 10 µM | ≤ 10 µM | ≤ 10 µM | ≤ 10 µM | ≤ 10 µM | ≤ 10 µM | ≤ 10 µM | ≤ 10 µM |  |  |  |  | COc1ncc(-c2cnc3[nH]cc(C(=O)c4c(F)ccc(NS(=O)(=O)c5ccccn5)c4F)c3c2)cn1 [P-2079] |
| ≤ 10 µM | ≤ 10 µM | ≤ 10 µM | ≤ 10 µM | ≤ 10 µM | ≤ 10 µM | ≤ 10 µM | ≤ 10 µM |  |  |  |  | COc1ncc(-c2cnc3[nH]cc(C(=O)c4c(F)ccc(NS(=O)(=O)c5ncn[nH]5)c4F)c3c2)cn1 [P-2080] |
| ≤ 10 µM | ≤ 10 µM | ≤ 10 µM |  | ≤ 10 µM | ≤ 10 µM | ≤ 10 µM | ≤ 10 µM | ≤ 10 µM | ≤ 10 µM |  |  | NC(=O)c1cccc(-c2cnc3[nH]cc(C(=O)c4cccc(NS(=O)(=O)c5cccnc5)c4)c3c2)c1 [P-2147, 3-{3-[3-(Pyridine-3-sulfonylamino)-benzoyl]-1H-pyrrolo[2,3-b]pyridin-5-yl}-benzamide] |
| ≤ 10 µM |  | ≤ 10 µM |  |  | ≤ 10 µM |  | ≤ 10 µM | ≤ 10 µM | ≤ 10 µM | ≤ 10 µM |  | CS(=O)(=O)c1cccc(-c2cnc3[nH]cc(C(=O)c4cccc(NS(=O)(=O)c5cccnc5)c4)c3c2)c1 [P-2149, Pyridine-3-sulfonic acid {3-[5-(3-methanesulfonyl-phenyl)-1H-pyrrolo[2,3-b]pyridine-3-carbonyl]-phenyl}-amide] |
| ≤ 10 µM | ≤ 10 µM | ≤ 10 µM |  | ≤ 10 µM | ≤ 10 µM |  | ≤ 10 µM | ≤ 10 µM | ≤ 10 µM | ≤ 10 µM | ≤ 10 µM | CCCS(=O)(=O)Nc1ccc(F)c(C(=O)c2c[nH]c3ncc(-c4ccc(O)nc4)cc23)c1F [P-2234, Propane-1-sulfonic acid {2,4-difluoro-3-[5-(6-hydroxy-pyridin-3-yl)-1H-pyrrolo[2,3-b]pyridine-3-carbonyl]-phenyl}-amide] |
| ≤ 10 µM | ≤ 10 µM | ≤ 10 µM |  | ≤ 10 µM | ≤ 10 µM | ≤ 10 µM | ≤ 10 µM |  |  |  |  | CCS(=O)(=O)Nc1ccc(F)c(C(=O)c2c[nH]c3ncc(-c4cnc(OC)nc4)cc23)c1F [P-2286, Ethanesulfonic acid {2,4-difluoro-3-[5-(2-methoxy-pyrimidin-5-yl)-1H-pyrrolo[2,3-b]pyridine-3-carbonyl]-phenyl}-amide] |
| ≤ 10 µM | ≤ 10 µM | ≤ 10 µM | ≤ 10 µM | ≤ 10 µM | ≤ 10 µM | ≤ 10 µM | ≤ 10 µM |  |  |  |  | COc1ncc(-c2cnc3[nH]cc(C(=O)c4c(F)ccc(NS(=O)(=O)C(C)C)c4F)c3c2)cn1 [P-2287, Propane-2-sulfonic acid {2,4-difluoro-3-[5-(2-methoxy-pyrimidin-5-yl)-1H-pyrrolo[2,3-b]pyridine-3-carbonyl]-phenyl}-amide] |
| ≤ 10 µM | ≤ 10 µM |  |  | ≤ 10 µM | ≤ 10 µM | ≤ 10 µM | ≤ 10 µM |  |  |  |  | COc1ncc(-c2cnc3[nH]cc(C(=O)c4c(F)ccc(NS(C)(=O)=O)c4F)c3c2)cn1 [P-2295, N-{2,4-Difluoro-3-[5-(2-methoxy-pyrimidin-5-yl)-1H-pyrrolo[2,3-b]pyridine-3-carbonyl]-phenyl}-methanesulfonamide] |
| ≤ 10 µM | ≤ 10 µM | ≤ 10 µM | ≤ 10 µM | ≤ 10 µM | ≤ 10 µM | ≤ 10 µM | ≤ 10 µM |  |  |  |  | CCC(C)S(=O)(=O)Nc1ccc(F)c(C(=O)c2c[nH]c3ncc(-c4cnc(OC)nc4)cc23)c1F (stereo not drawn) [P-2323, Butane-2-sulfonic acid {2,4-difluoro-3-[5-(2-methoxy-pyrimidin-5-yl)-1H-pyrrolo[2,3-b]pyridine-3-carbonyl]-phenyl}-amide] |
| ≤ 10 µM | ≤ 10 µM | ≤ 10 µM | ≤ 10 µM | ≤ 10 µM | ≤ 10 µM |  | ≤ 10 µM | ≤ 10 µM |  |  |  | COc1ncc(-c2cnc3[nH]cc(C(=O)c4c(F)ccc(NS(=O)(=O)CCC(F)(F)F)c4F)c3c2)cn1 [P-2333] |
| ≤ 10 µM | ≤ 10 µM | ≤ 10 µM | ≤ 10 µM | ≤ 10 µM | ≤ 10 µM |  |  |  |  |  |  | COc1ncc(-c2cnc3[nH]cc(C(=O)c4c(F)ccc(NS(=O)(=O)CC(F)(F)F)c4F)c3c2)cn1 [P-2342, 2,2,2-Trifluoro-ethanesulfonic acid {2,4-difluoro-3-[5-(2-methoxy-pyrimidin-5-yl)-1H-pyrrolo[2,3-b]pyridine-3-carbonyl]-phenyl}-amide] |
| ≤ 10 µM | ≤ 10 µM | ≤ 10 µM | ≤ 10 µM | ≤ 10 µM | ≤ 10 µM |  | ≤ 10 µM |  |  |  |  | COc1ncc(-c2cnc3[nH]cc(C(=O)c4c(F)ccc(NS(=O)(=O)C5CCC5)c4F)c3c2)cn1 [P-2373, Cyclobutanesulfonic acid {2,4-difluoro-3-[5-(2-methoxy-pyrimidin-5-yl)-1H-pyrrolo[2,3-b]pyridine-3-carbonyl]-phenyl}-amide] |
| ≤ 10 µM | ≤ 10 µM | ≤ 10 µM | ≤ 10 µM | ≤ 10 µM | ≤ 10 µM | ≤ 10 µM | ≤ 10 µM |  |  |  |  | COc1ncc(-c2cnc3[nH]cc(C(=O)c4c(F)ccc(NS(=O)(=O)N(C)C)c4F)c3c2)cn1 [P-2399, N,N-dimethylamino-sulfonic acid {2,4-difluoro-3-[5-(2-methoxy-pyrimidin-5-yl)-1H-pyrrolo[2,3-b]pyridine-3-carbonyl]-phenyl}-amide] |
| ≤ 10 µM | ≤ 10 µM | ≤ 10 µM | ≤ 10 µM | ≤ 10 µM | ≤ 10 µM | ≤ 10 µM |  |  |  |  |  | COc1ncc(-c2cnc3[nH]cc(C(=O)c4c(F)ccc(NS(=O)(=O)N5CCOCC5)c4F)c3c2)cn1 [P-2402, Morpholine-4-sulfonic acid {2,4-difluoro-3-[5-(2-methoxy-pyrimidin-5-yl)-1H-pyrrolo[2,3-b]pyridine-3-carbonyl]-phenyl}-amide] |
